Target: T1, Lpa5930; P. acidilactici CECT 5930 laccase (D2EK17 protein) (Pediococcus acidilactici, UniProt Z9B926UHL0)
T1 construct: pET28a, E. coli BL21(DE3)/pGro7; ~60 kDa by SDS-PAGE; D2EK17 is the UniProt entry of the strain 7_4 homologue
T1 sequence (Z9B926UHL0 1-477): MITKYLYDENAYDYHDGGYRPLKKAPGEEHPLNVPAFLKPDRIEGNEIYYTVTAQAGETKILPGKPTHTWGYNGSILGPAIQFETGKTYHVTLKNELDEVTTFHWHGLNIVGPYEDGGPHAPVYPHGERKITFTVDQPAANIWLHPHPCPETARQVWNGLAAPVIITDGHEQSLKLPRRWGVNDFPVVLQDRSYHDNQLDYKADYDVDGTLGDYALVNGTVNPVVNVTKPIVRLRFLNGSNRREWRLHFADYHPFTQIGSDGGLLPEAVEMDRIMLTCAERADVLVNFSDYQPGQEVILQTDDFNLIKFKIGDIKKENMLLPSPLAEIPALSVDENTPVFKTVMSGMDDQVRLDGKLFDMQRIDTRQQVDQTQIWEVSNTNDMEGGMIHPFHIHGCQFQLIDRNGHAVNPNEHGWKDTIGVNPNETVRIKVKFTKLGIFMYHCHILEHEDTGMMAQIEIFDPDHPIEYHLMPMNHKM
Experiment: ABTS oxidation, absorbance at […] nm, Michaelis-Menten fit
Type: biochemical
Conditions: acetate buffer pH 4.0, 28°C; apparent Km (abstract)

Km: 1.7 mM
SMILES: CCn1c(=NN=c2sc3cc(S(=O)(=O)O)ccc3n2CC)sc2cc(S(=O)(=O)O)ccc21 [ABTS, 2,2′-azino-bis(3-ethylbenzothiazoline-6-sulfonic acid)]
